Measured values reported in article PMC3853024, “Aromatase inhibitor treatment with an intravaginal device and its effect on pre-ovulatory ovarian follicles in a bovine model” (Reproductive Biology and Endocrinology : RB&E, 2013).
Read-outs that look alike come from different tables or passages of the source.

How the values were obtained:
[1] = Pharmacokinetics of a letrozole-containing intravaginal device in heifers (plasma letrozole by LCMS/MS); format: in vivo, cattle (Hereford-cross beef heifers); conditions: for half-life: read-out: Half-life (T1/2) (converted); for Cmax: read-out: Maximal concentration (Cmax); for MRT: read-out: Mean residence time (MRT); for clearance: read-out: Systemic clearance (ClS) (converted); for Vd/F: read-out: Volume of distribution (Vz/f)
Protocol: Intravaginal devices were prepared using a Cue-Mate spine (Bioniche Animal Health, Bellville, ON, Canada) assembled with two blank (progesterone-free) silicone pods that were coated with a gel-based vehicle containing letrozole or vehicle only (control). The vehicle contained the following (all ingredients % w/w): letrozole 10%, gelatin 20% (Gelatin type B, Fisher Scientific, Pittsburgh, PA, USA), polymer 65% (prepared by mixing distilled water 68%, Poloxamer 188 12% and Poloxamer 407 20%, both from Spectrum Chemical, New Brunswick, NJ, USA) and distilled water 5%.
Blood samples were collected by coccygeal venipuncture into 10 mL heparinized vacuum tubes (Becton Dickinson Vacutainer Systems, Franklin Lakes, NJ, USA). Samples were collected daily from pre-treatment follicular wave emergence (Day 0) to 12 days after the subsequent ovulation. In a subset of letrozole-treated animals (n=4), frequent blood samples were collected using an in-dwelling jugular catheter, as previously described, at the time of catheter placement and 0, 10, 20, 30 min, 1, 1.5, 2, 3, 4, 6, 8, 12 and 24 h after treatment for measurement of plasma letrozole concentration. Blood samples were centrifuged at 1500 × g for 20 min and plasma was separated and stored in plastic tubes at -20°C.
Plasma letrozole concentrations were quantified using liquid chromatography tandem mass spectrometry (LCMS/MS), as described. Briefly, letrozole was extracted from […] with […] of 0.1M ammonium acetate followed by the addition of 5 mL methyl t-butyl ether (MTBE) and vortexed for 15 s. The organic layer was removed and transferred to a fresh 15 mL plastic tube and dried by gentle nitrogen gas flow. The dried extract was reconstituted in 1 mL of 100% ethanol. Separation was accomplished by HPLC (Agilent 1200; Agilent, Santa Clara, CA, USA) fitted with an analytical column (50 × 2.1 mm, […] particle size; Betasil C18; Thermo Scientific, Waltham, MA, USA) operated at 35°C. Mass spectra were collected using a tandem mass spectrometer (SCIEX 3000; Applied Bioscience, Foster City, CA, USA) fitted with an electrospray ionisation source, operated in the negative ionisation mode. Quantification was performed using Analyst 1.4.1 software provided by SCIEX (Applied Bioscience). The minimum and maximum values along the standard curve were 0.25 and 500 ng/mL, respectively. The limit of quantification used in this method was 0.25 ng/mL and the mean recovery was 70%.
The following pharmacokinetic parameters were determined: Cmax (maximum observed plasma concentration of letrozole), tmax (time to reach Cmax), t1/2 (terminal elimination half-life), AUC (area under the plasma letrozole concentration-time curve from zero to infinity calculated as AUCtlast). The concentration of letrozole in plasma as a function of time (C–t) data for each heifer was analyzed by non-compartmental techniques using a computer modeling program (WinNonLin Standard Edition Version 2.1, Pharsight Corporation, Mountain View, CA, USA). Peak letrozole concentration in plasma (Cmax) and time to peak letrozole concentration (tmax) were determined using observed values. The apparent terminal rate constant (λ) was determined by linear regression of the last 6–8 points on the terminal phase of the logarithmic plasma concentration vs time curve. The area under the C–t curve until the final plasma sample (AUClast) was determined using the linear trapezoidal rule. The total area under the curve extrapolated to infinity (AUC0-∞) was calculated by adding the Clast obs/λ + AUClast. The terminal half-life (T1/2λ) was calculated as ln2 ⁄λ. The mean residence time (MRT) was calculated as the area under the moment curve extrapolated to infinity (AUMC0-∞) ⁄AUC0-∞. Systemic clearance (ClS) was determined using the dose divided by AUC0-inf. The apparent volume of distribution (Vλ/f) was calculated by clearance divided by λ. […]

ovarian function = tested on: ovarian function; design: method as in PMID 21696721, PMID 22541551; conditions: cited from earlier work
[2] = Mean of 4 heifers, intravaginal device 1 g letrozole
[3] = female, Hereford-cross, bovine, plasma, 1 g, Heifer 1, intravaginal device 1 g letrozole
[4] = female, Hereford-cross, bovine, plasma, 1 g, Heifer 2, intravaginal device 1 g letrozole
[5] = female, Hereford-cross, bovine, plasma, 1 g, Heifer 3, intravaginal device 1 g letrozole
[6] = female, Hereford-cross, bovine, plasma, 1 g, Heifer 4, intravaginal device 1 g letrozole
[7] = female, Hereford-cross, bovine, plasma, 1 g, Mean of 4 heifers, intravaginal device 1 g letrozole
[8] = single intravenous dose Day 3 post-ovulation, or 3-day regimen Days 1–3, 3–5 or 5–7 post-ovulation

In the case of N#Cc1ccc(C(c2ccc(C#N)cc2)n2cncn2)cc1 [Letrozole], the “Area under the curve (AUClast)” value ([1]; Heifer 1, intravaginal device 1 g letrozole) is reported as 3538.1 hours x ng/mL, the “Area under the curve (AUClast)” value ([1]; Heifer 2, intravaginal device 1 g letrozole) is reported as 2697.7 hours x ng/mL and the “Area under the curve (AUClast)” value ([1]; Heifer 3, intravaginal device 1 g letrozole) is reported as 2583.1 hours x ng/mL. The “Area under the curve (AUClast)” value ([1]; Heifer 4, intravaginal device 1 g letrozole) was 1698.0 hours x ng/mL, the “Area under the curve (AUClast)” value [1, 2] was 2629.2 hours x ng/mL and the “Half-life (T1/2)” value [1, 2] was 33.3 h. The half-life [1, 3] was 35.1 h, the Cmax [1, 3] was 0.0324 µg/mL and the MRT [1, 3] was 71.5 h. The clearance [1, 3] was 0.1 L/h/kg, the Vd/F [1, 3] was 6.2 L/kg and the half-life [1, 4] was 20.4 h. For the same molecule, the Cmax [1, 4] was 0.0353 µg/mL, the MRT [1, 4] was 56.2 h and the clearance [1, 4] was 0.2 L/h/kg. The Vd/F [1, 4] was 4.9 L/kg, the half-life [1, 5] was 41.9 h and the Cmax [1, 5] was 0.0273 µg/mL. The MRT [1, 5] was 65.5 h, the clearance [1, 5] was 0.2 L/h/kg and the Vd/F [1, 5] was 9.9 L/kg. For the same molecule, the half-life [1, 6] was 35.7 h, the Cmax [1, 6] was 0.0317 µg/mL and the MRT [1, 6] was 48.7 h. It also gave a clearance [1, 6] of 0.3 L/h/kg, a Vd/F [1, 6] of 13.2 L/kg and a half-life [1, 7] of 33 h. It also gave a Cmax [1, 7] of 0.0317 µg/mL, an MRT [1, 7] of 60.5 h and a clearance [1, 7] of 0.2 L/h/kg. For the same molecule, the Vd/F [1, 7] was 8.5 L/kg, the bioavailability ([1]; female, Hereford-cross, bovine, plasma, other: intravaginal device, 1 g, Mean, intravaginal device AUClast versus single iv injection AUClast (unpublished data), corrected by dose) was 16% and the Tmax ([1]; female, Hereford-cross, bovine, plasma, other: intravaginal device, 1 g, post-device insertion, n=4, read-out: Time of maximal concentration in plasma (tmax)) was 24 h. For the same molecule, the “Duration of letrozole release from the intravaginal device” value ([1]; post-insertion, inferred from plasma letrozole concentration profile) was 24 h, the “Corpora lutea size following treatment” value (ovarian function; heifers treated with letrozole for 3 days) was “larger corpora lutea” and the “Circulating FSH concentration” value (ovarian function; [8]) was “did not induce an elevation”. For the same molecule, the “Mean plasma luteinizing hormone (LH) concentrations” value (ovarian function; [8]) was “did increase”.
